From PubChem BioAssay (NCI)
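Where inhibition never reached the appropriate level, the endpoint shown equals the highest concentration tested. Otherwise, values were interpolated linearly from a five-concentration, 48-hour dose response in 96-well plates. GI50 marks 50% less growth. TGI marks complete inhibition of growth.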

What was measured:
Experiment in all cases: DTP human tumour cell line panel, 48 h
[1] = test system: OVCAR-5 ovarian
[2] = test system: RPMI-8226 leukemia
[3] = test system: SNB-75 CNS
[4] = test system: UACC-62 melanoma
[5] = test system: OVCAR-8 ovarian
[6] = test system: M14 melanoma
[7] = test system: T-47D breast
[8] = test system: TK-10 renal
[9] = test system: DMS 273 small cell lung
[10] = test system: KM20L2 colon

Row | SMILES | GI50 [1] [µM] | TGI [1] [µM] | GI50 [2] [µM] | TGI [2] [µM] | GI50 [3] [µM] | TGI [3] [µM] | GI50 [4] [µM] | TGI [4] [µM] | GI50 [5] [µM] | TGI [5] [µM] | GI50 [6] [µM] | TGI [6] [µM] | GI50 [7] [µM] | TGI [7] [µM] | GI50 [8] [µM] | TGI [8] [µM] | TGI [9] [µM] | TGI [10] [µM]
1 | O=C(/C=C/c1ccc(Cl)cc1)c1ccc(Nc2ccnc3cc(Cl)ccc23)cc1 | 22.1 | 68.5 | 2.08 | > 30.7 | > 100 | > 100 | > 100 | > 100 | > 100 | > 100 | 26.8 | > 100 | > 55.7 | > 100 | > 84.7 | > 100 |  | 
2 | Cc1cc2c(cc1Cl)SC(N(N(C)C)S(=O)(=O)c1ccc(Cl)cc1)=NS2(=O)=O | 53.8 | > 100 | 12.5 | > 100 | 36 | 97.5 | 22 | 56.1 | 36.6 | > 100 | 27.8 | > 100 | 15.8 | > 100 | 43.9 | > 100 |  | 
3 | C=C1NC(=O)C(C(C)CC)NC(=O)C2CSCC(NC(=O)CCC(=O)O)C(=O)NC(Cc3ccccc3)C(=O)NC(C)C(=O)NC(CC(C)CC)C(=O)NC(C(=O)NC(Cc3ccccc3)C(=O)N3CCCC3C(=O)N2)C(C)OC(=O)C(CO)NC(=O)C(C(O)COC)N(C)C(=O)C(C(C)C)NC(=O)C(CC(C)CC)NC1=O (stereo not drawn) | 0.0327 | > 6 | 0.0217 | > 6 | 0.0048 | > 6 | 0.00311 | > 6 | 0.0678 | > 6 | 0.00878 | 0.0391 | 0.0242 | > 6 | 0.95 | > 6 |  | 
4 | Nc1ncnc2n[nH]c(Nc3ccc(F)cc3)c12 | 60 | > 100 | 15.1 | > 100 | 31.7 | > 100 | 20.8 | > 100 | 22.5 | > 100 | 13.4 | > 100 | 21.1 | > 100 | 25.4 | > 100 |  | 
5 | N=Nc1c(OC(=O)Nc2cccc(Cl)c2)[nH]c2ccccc12 |  | 31.2 |  | 10.7 |  | 17.9 |  | 21.1 |  | 20 |  | 18.6 |  | 7.34 |  | 24.6 |  | 
6 | CCCCCCCC(=O)SCC/C=C/[C@@H]1CC(=O)NCc2cc(ccn2)C2=N[C@@](C)(CS2)C(=O)N[C@@H](C(C)C)C(=O)O1 | < 0.0113 | > 33.3 | 0.116 | > 33.3 | 0.0079 | > 33.3 | 0.0062 | 0.0507 | 0.0109 | > 33.3 | 0.0111 | > 13.3 | 0.0838 | 0.616 | < 0.0141 | 0.173 |  | 
7 | Cc1cc(/C=C/c2ccc3cc(N(C)C)ccc3[n+]2C)c(C)n1-c1ccccc1 | 0.688 | 12.4 | 0.0698 | 0.696 | 0.211 | 1.9 | 0.277 | 1.27 | 0.143 | 0.76 | 0.3 | 1.25 | 0.0635 | 1.15 | 0.301 | 2.34 |  | 
8 | CC[C@H](Nc1ncnc2nc[nH]c12)c1oc2ccccc2c(=O)c1-c1cccc(F)c1 | 42.5 | > 100 | 14.5 | > 100 | 4.15 | 56.1 | 10.5 | 69 | 31.9 | > 100 | 28.1 | > 100 | 8.24 | > 100 | 19.5 | 95.6 |  | 
9 | COc1ccc(-c2nnc(COc3ccc(NC(=O)Nc4cc(C(F)(F)F)cc(C(F)(F)F)c4)cc3F)o2)cc1 | 2.76 | 9.49 | 1.35 | 4.2 | 2.02 | 6.37 | 2.11 | 7.13 | 1.89 | 5.85 | 2.97 | 11.4 | 2.62 | 6.94 | 3.49 | 12.4 |  | 
10 | C=C1C(=O)O[C@H]2[C@H]1CC/C(COC(=O)c1c[nH]c3ccccc13)=C\CC[C@@]1(C)O[C@@H]21 | 0.405 | 2.1 | 0.0404 | 0.281 | 0.207 | 0.923 | 0.185 | 0.388 | 0.282 | 1.03 | 0.229 | 0.651 | 0.401 | 2.26 | 0.28 | 0.736 |  | 
11 | Cc1ccccc1S(=O)(=O)OC1NS(=O)(=O)c2ccccc21 (stereo not drawn) |  | > 100 |  | > 100 |  | > 100 |  | > 100 |  | > 100 |  | > 100 |  | > 100 |  | > 100 |  | 
12 | CC1(C)C2CCC(=O)C1CC2 (stereo not drawn) |  | > 100 |  | > 100 |  | > 100 |  | > 100 |  | > 100 |  | > 100 |  | > 100 |  | > 100 |  | 
13 | O=C(Nc1ccc(Cl)cc1)c1cccc(NC2=C(Cl)C(=O)N(Cc3ccccc3)C2=O)c1 | 13.4 | 36.6 | 4.67 | 18.6 | 8.88 | 25.1 | 11 | 22.9 | 10 | 21.6 | 14.5 | 72.8 | 11.4 | 78.5 | 14.3 | 30.7 |  | 
14 | OCC#Cc1ccccc1C#Cc1ccccc1 | 14.4 | 28.3 | 3 | 11.8 | 14.6 | 30.4 | 14.8 | 27.9 | 19.6 | 40.6 | 10.6 | 22.5 | 18.1 | 37.6 | 13.6 | 26.6 |  | 
15 | Cn1cnc([N+](=O)[O-])c1Sc1nc2ccccc2[nH]1 |  | > 100 |  | 56.4 |  | 49.9 |  |  |  | 30.4 |  | 56.3 |  |  |  | 40.8 | 3.43 | 61.5
